The values below are quoted from earlier work in US20060002865A1, “Stable baking soda/peroxide with calcium and phosphate whitening product” (priority 2004, published 2006).

The conditions of series [1]: aqueous solution, pH about 7.0, about 25° C.

Consider `[Mg+2].[O-][O-]` [Magnesium peroxide], for which the “solubility in water (in words)” value is “essentially insoluble”.

In the case of `O.O.O=P([O-])([O-])O.[Ca+2]` [dicalcium phosphate dihydrate], the calcium cations released entry in series [1] is “about 40 ppm”.

Consider Sodium perborate, for which the solubility in water result was “about 2.5%”.
